Experiments:
Conditions in all cases: 72 h
Caco-2 [1] = assay: cell viability relative to DMSO; higher = less toxic
Calu-3 [2] = assay: as above
HepG2 [3] = assay: as above
U2OS [4] = assay: as above
Vero E6 [5] = assay: as above
Caco-2 [6] = assay: relative viability EC50 (midpoint between 100% and the lowest measured viability); higher = less toxic
Calu-3 [7] = assay: as above
HepG2 [8] = assay: as above
U2OS [9] = assay: as above
Vero E6 [10] = assay: as above
Caco-2 [11] = assay: drug sensitivity score (DSS) for viability; higher = more toxic; extreme values may be limits of the assay
Calu-3 [12] = assay: as above
HepG2 [13] = assay: as above
U2OS [14] = assay: as above
Vero E6 [15] = assay: as above

Compound | cell viability (Caco-2 [1]; 1 nM) | cell viability (Caco-2 [1]; 10 nM) | cell viability (Caco-2 [1]; 100 nM) | cell viability (Caco-2 [1]; 1000 nM) | cell viability (Caco-2 [1]; 10000 nM) | cell viability (Calu-3 [2]; 1 nM) | cell viability (Calu-3 [2]; 10 nM) | cell viability (Calu-3 [2]; 100 nM) | cell viability (Calu-3 [2]; 1000 nM) | cell viability (Calu-3 [2]; 10000 nM) | cell viability (HepG2 [3]; 1 nM) | cell viability (HepG2 [3]; 10 nM) | cell viability (HepG2 [3]; 100 nM) | cell viability (HepG2 [3]; 1000 nM) | cell viability (HepG2 [3]; 10000 nM) | cell viability (U2OS [4]; 1 nM) | cell viability (U2OS [4]; 10 nM) | cell viability (U2OS [4]; 100 nM) | cell viability (U2OS [4]; 1000 nM) | cell viability (U2OS [4]; 10000 nM) | cell viability (Vero E6 [5]; 1 nM) | cell viability (Vero E6 [5]; 10 nM) | cell viability (Vero E6 [5]; 100 nM) | cell viability (Vero E6 [5]; 1000 nM) | cell viability (Vero E6 [5]; 10000 nM) | relative viability EC50 (Caco-2 [6]) | relative viability EC50 (Calu-3 [7]) | relative viability EC50 (HepG2 [8]) | relative viability EC50 (U2OS [9]) | relative viability EC50 (Vero E6 [10]) | drug sensitivity score (Caco-2 [11]) | drug sensitivity score (Calu-3 [12]) | drug sensitivity score (HepG2 [13]) | drug sensitivity score (U2OS [14]) | drug sensitivity score (Vero E6 [15])
CC(C)c1c2cc(-c3ccnc(N[C@H]4CC[C@H](NC5CCOCC5)CC4)n3)ccc2nn1C | 94.6% | 96.6% | 94.8% | 53.6% | 31.3% | 105% | 107% | 108% | 60.3% | 43.3% | 98.9% | 101% | 83.2% | 10.1% | 9.8% | 99% | 95% | 99.8% | 42.8% | 4.6% | 93.8% | 96.7% | 88% | 86% | 4.7% | 0.589 µM | 0.719 µM | 0.18 µM | 0.851 µM | 2 µM | 9.6 | 7.7 | 19.1 | 12 | 7.6
CCc1c(C(=O)NCCc2ccc(N3CCCCC3)cc2)[nH]c2ccc(Cl)cc12 | 98.7% | 94% | 95.2% | 90.6% | 91% | 95.8% | 97.5% | 93.4% | 100% | 101% | 97.4% | 107% | 92.3% | 105% | 99.4% | 98% | 93.9% | 98.8% | 95.2% | 98.6% | 97.6% | 96.4% | 105% | 100% | 96% | > 10 µM | > 10 µM | > 10 µM | > 10 µM | > 10 µM | 0 | 0 | 0 | 0 | 0
CN(C)C(=O)n1nnnc1Cc1ccc(-c2ccccc2)cc1 | 106% | 106% | 100% | 106% | 40.1% | 102% | 98% | 95.2% | 111% | 44.9% | 125% | 108% | 110% | 100% | 43.3% | 102% | 105% | 102% | 104% | 13.6% | 107% | 106% | 103% | 102% | 29.1% | 3.62 µM | 3.91 µM | 3.19 µM | 3.44 µM | 3.32 µM | 2.8 | 2.3 | 3 | 4.5 | 3.7
CNC(=O)Nc1ccc(-c2nc(N3CC4CCC(C3)O4)c3cnn(C4CCC5(CC4)OCCO5)c3n2)cc1 | 111% | 85.1% | 50.6% | 32.3% | 33.1% | 94.2% | 67.2% | 36.7% | 28% | 30.7% | 98.6% | 97.6% | 47.1% | 31.2% | 20.8% | – | – | – | – | – | 94.1% | 93% | 70.1% | 43.8% | 36.4% | 0.0381 µM | 0.0122 µM | 0.0648 µM | – | 0.109 µM | 19.5 | 25.1 | 20.8 | – | 14.1
COC(=O)c1cnn(-c2ccc(F)cc2F)c1/C=N/NC(=S)NC(C)(C)C | 102% | 90.6% | 102% | 105% | 93.9% | 101% | 101% | 97.4% | 89.1% | 89.6% | 112% | 107% | 98.4% | 94.3% | 105% | 98.6% | 98.3% | 104% | 98% | 103% | 106% | 101% | 95.9% | 96.1% | 98.8% | > 10 µM | > 10 µM | > 10 µM | > 10 µM | > 10 µM | 0 | 0.3 | 0 | 0 | 0
